This passage reports relative viability results from the supplement of paper PMC10307832.

Assay in all cases: relative viability (nuclei count vs DMSO), 5 days (fraction); higher = more cells survive
Compound in the assay “IPA-3 + Pictilisib”: C1=CC=C2C(=C1)C=CC(=C2SSC3=C(C=CC4=CC=CC=C43)O)O [IPA-3] + CS(=O)(=O)N1CCN(Cc2cc3nc(-c4cccc5[nH]ncc45)nc(N4CCOCC4)c3s2)CC1 [Pictilisib] (partner 1 µM)
Summed up: (§1)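 Five library-drug doses in √10 steps were combined with a fixed anchor-drug dose, or a single drug was given alone, by pin tool to lung cancer cell lines in 1536-well plates the day after seeding. Nuclei were stained and counted after 5 days. Relative viability is the nuclei count in treated wells over that in vehicle wells, taken as the median of duplicate plates.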

Compound in the assay “RAF265 + Trametinib”: Cn1c(Nc2ccc(C(F)(F)F)cc2)nc2cc(Oc3ccnc(-c4ncc(C(F)(F)F)[nH]4)c3)ccc21 [RAF265] + CC(=O)Nc1cccc(-n2c(=O)n(C3CC3)c(=O)c3c(Nc4ccc(I)cc4F)n(C)c(=O)c(C)c32)c1 [Trametinib] (partner 0.02 µM)
Put shortly:
as §1

Compound in the assay “RAF265 + Palbociclib”: Cn1c(Nc2ccc(C(F)(F)F)cc2)nc2cc(Oc3ccnc(-c4ncc(C(F)(F)F)[nH]4)c3)ccc21 [RAF265] + CC(=O)c1c(C)c2cnc(Nc3ccc(N4CCNCC4)cn3)nc2n(C2CCCC2)c1=O [Palbociclib] (partner 0.5 µM)
Summed up: as §1

Compound in the assay “RAF265 + AZD7762”: Cn1c(Nc2ccc(C(F)(F)F)cc2)nc2cc(Oc3ccnc(-c4ncc(C(F)(F)F)[nH]4)c3)ccc21 [RAF265] + NC(=O)Nc1cc(-c2cccc(F)c2)sc1C(=O)N[C@H]1CCCNC1 [AZD7762] (partner 0.2 µM)
Summed up: as §1

For the cell line CAL-12T, the relative viability is 0.442 with IPA-3 + Pictilisib (first compound 0.2 µM); 0.494 with IPA-3 + Pictilisib (first compound 0.6325 µM); 0.397 in the assay with IPA-3 + Pictilisib (first compound 2 µM); 0.441 with IPA-3 + Pictilisib (first compound 6.325 µM); 0.348 in the assay with IPA-3 + Pictilisib (first compound 20 µM); 0.334 with RAF265 + Trametinib (first compound 0.01 µM). Further, the relative viability with RAF265 + Trametinib (first compound 0.03162 µM) turned out to be 0.296; in the assay with RAF265 + Trametinib (first compound 0.1 µM), 0.273; with RAF265 + Trametinib (first compound 0.3162 µM) it was 0.209; with RAF265 + Trametinib (first compound 1 µM) it was 0.333; in the assay with RAF265 + Palbociclib (first compound 0.01 µM), 0.622; in the assay with RAF265 + Palbociclib (first compound 0.03162 µM), 0.488. Also, the relative viability was 0.364 with RAF265 + Palbociclib (first compound 0.1 µM); 0.27 with RAF265 + Palbociclib (first compound 0.3162 µM); 0.178 in the assay with RAF265 + Palbociclib (first compound 1 µM); 0.56 in the assay with RAF265 + AZD7762 (first compound 0.01 µM); 0.631 with RAF265 + AZD7762 (first compound 0.03162 µM); 0.678 with RAF265 + AZD7762 (first compound 0.1 µM). The figures for the relative viability in the assay with RAF265 + AZD7762 (first compound 0.3162 µM) and in the assay with RAF265 + AZD7762 (first compound 1 µM) were 0.598 and 0.504, respectively.
Regarding COR-L23, the relative viability with IPA-3 + Pictilisib (first compound 0.2 µM) was determined as 1.01; in the assay with IPA-3 + Pictilisib (first compound 0.6325 µM) it was 0.75; in the assay with IPA-3 + Pictilisib (first compound 2 µM) it was 0.764; in the assay with IPA-3 + Pictilisib (first compound 6.325 µM), 0.615; in the assay with IPA-3 + Pictilisib (first compound 20 µM), 0.72; with RAF265 + Trametinib (first compound 0.01 µM) it was 0.684. Besides, the relative viability in the assay with RAF265 + Trametinib (first compound 0.03162 µM) was found to be 0.444; with RAF265 + Trametinib (first compound 0.1 µM), 0.331; with RAF265 + Trametinib (first compound 0.3162 µM), 0.247; with RAF265 + Trametinib (first compound 1 µM), 0.207; in the assay with RAF265 + Palbociclib (first compound 0.01 µM) it was 0.295; with RAF265 + Palbociclib (first compound 0.03162 µM), 0.233. Further, the values for the relative viability with RAF265 + Palbociclib (first compound 0.1 µM), with RAF265 + Palbociclib (first compound 0.3162 µM) and in the assay with RAF265 + Palbociclib (first compound 1 µM) were 0.235, 0.184 and 0.148, respectively.
As for COR-L 105, the relative viability amounted to 0.465 with IPA-3 + Pictilisib (first compound 0.2 µM); 0.422 with IPA-3 + Pictilisib (first compound 0.6325 µM); 0.393 with IPA-3 + Pictilisib (first compound 2 µM); 0.416 with IPA-3 + Pictilisib (first compound 6.325 µM); 0.351 with IPA-3 + Pictilisib (first compound 20 µM); 0.47 with RAF265 + Trametinib (first compound 0.01 µM). Further, the relative viability with RAF265 + Trametinib (first compound 0.03162 µM) stood at 0.428; with RAF265 + Trametinib (first compound 0.1 µM) it was 0.429; in the assay with RAF265 + Trametinib (first compound 0.3162 µM) it was 0.38; in the assay with RAF265 + Trametinib (first compound 1 µM), 0.348; in the assay with RAF265 + Palbociclib (first compound 0.01 µM) it was 0.425; with RAF265 + Palbociclib (first compound 0.03162 µM) it was 0.36. The relative viability in the assay with RAF265 + Palbociclib (first compound 0.1 µM) was 0.385; in the assay with RAF265 + Palbociclib (first compound 0.3162 µM), 0.371; in the assay with RAF265 + Palbociclib (first compound 1 µM), 0.358.
With Calu-6, the relative viability with IPA-3 + Pictilisib (first compound 0.2 µM) worked out at 1.06; in the assay with IPA-3 + Pictilisib (first compound 0.6325 µM), 0.872; with IPA-3 + Pictilisib (first compound 2 µM) it was 0.933; in the assay with IPA-3 + Pictilisib (first compound 6.325 µM), 0.736; with IPA-3 + Pictilisib (first compound 20 µM), 0.848.
For the cell line ChaGo-K-1, the relative viability with IPA-3 + Pictilisib (first compound 0.2 µM) was 0.728; with IPA-3 + Pictilisib (first compound 0.6325 µM), 0.785; with IPA-3 + Pictilisib (first compound 2 µM) it was 0.663; with IPA-3 + Pictilisib (first compound 6.325 µM), 0.824; in the assay with IPA-3 + Pictilisib (first compound 20 µM) it was 0.824; with RAF265 + Trametinib (first compound 0.01 µM) it was 0.903. The relative viability in the assay with RAF265 + Trametinib (first compound 0.03162 µM) is 0.965; with RAF265 + Trametinib (first compound 0.1 µM), 0.859; with RAF265 + Trametinib (first compound 0.3162 µM), 0.776; with RAF265 + Trametinib (first compound 1 µM), 0.632; with RAF265 + Palbociclib (first compound 0.01 µM), 0.935; in the assay with RAF265 + Palbociclib (first compound 0.03162 µM), 0.951. In addition, the relative viability was 0.89 with RAF265 + Palbociclib (first compound 0.1 µM); 0.844 with RAF265 + Palbociclib (first compound 0.3162 µM); 0.607 in the assay with RAF265 + Palbociclib (first compound 1 µM); 0.708 with RAF265 + AZD7762 (first compound 0.01 µM); 0.877 with RAF265 + AZD7762 (first compound 0.03162 µM); 0.812 with RAF265 + AZD7762 (first compound 0.1 µM). Besides, the relative viability is 0.767 with RAF265 + AZD7762 (first compound 0.3162 µM) and 0.709 with RAF265 + AZD7762 (first compound 1 µM).
For EBC-1, the relative viability with IPA-3 + Pictilisib (first compound 0.2 µM) stood at 0.434; with IPA-3 + Pictilisib (first compound 0.6325 µM) it was 0.316; with IPA-3 + Pictilisib (first compound 2 µM) it was 0.354; with IPA-3 + Pictilisib (first compound 6.325 µM), 0.265; with IPA-3 + Pictilisib (first compound 20 µM), 0.269.
